# US20250188032A1, “NITROGEN-CONTAINING HETEROCYCLIC COMPOUNDS AND USES THEREOF” (BNH RESEARCH CO., LTD., priority 2022, published 2025)
# B1: BDNF: brain-derived neurotrophic factor applied to the mice barrel cortex using Alzet osmotic pump (protein, UniProt P23560 19-247, looked up)
# Neurotrophic factor BDNF …: APMKEANIRGQGGLAYPGVRTHGTLESVNGPKAGSRGLTSLADTFEHVIEELLDEDQKVRPNEENNKDADLYTSRVMLSSQVPLEPPLLFLLEEYKNYLDAANMSMRVRRHSDPARRGELSVCDSISEWVTAADKKTAVDMSGGTVTVLEKVPVSKGQLKQYFYETKCNPMGYTKEGCRGIDKRHWNSQCRTTQSYVRALTMDSKKRIGWRFIRIDTSCVCTLTIKRGR
# Tested on: C57BL/6J mice barrel cortex (layer 4)
# Assay: Synaptic function test: TC EPSC potency and GABA/AMPA ratio in barrel cortex (layer 4)
# Type: in vivo
# Source text: Eight weeks old male C57BL/6J mice were anesthetized with isoflurane during surgery. The mice were then be placed in a stereotaxic frame (RWD Life Science, China). The parietal and the frontal bones were exposed by a sagittal incision of the scalp at the midline from the level of the eyes to the occipital protuberance. A small burr hole was drilled after exposing the skull. The injection cannula was placed at the following coordinates: (Mouse: Bregma −3.30, lateral −1.50, and ventral 0.7 mm). Sterile saline solution (+/−a compound of the present disclosure) was perfused at a constant flow rate of 0.5 μL/h through the injection cannula using a mini-Os pump (DURECT Corporation ALZET Osmotic Pumps, CA). Implantation was done in layer 4 of the barrel cortex ipsilateral. To estimate extent of the diffusion of the injected compound in layer 4 barrel cortex during pump injection, methylene blue was first injected to stain the diffusion area. On average methylene blue diffused to […] away from the injection site (the total area of the barrel cortex region is about 1500 μm). Based on this analysis, the present inventors recorded from barrel cortex area.
# 2 mg of BnH12001 was dissolved in 800 ul of DMSO and prepared as a stock solution. For oral administration, BnH12001 DMSO stock:PEG400:Saline was mixed in a ratio of 5:55:40 and 200 μl/animal was administered. For the control group, a vehicle in which DMSO:PEG400:Saline was mixed in a 5:55:40 ratio was administered at 200 ul/animal. In the single drug administration test, the compound was administered once a day for about 11 to 12 days at a dose of 1 mg/kg. Dose response test was performed by administering the compound once a day for about 11 to 12 days at doses of 0.03, 0.1, 0.3, 1, 3, and 10 mg/kg. 5 mice were used for the compound administration group and the control group, respectively.
# For TC or hippocampus slice preparation. 9 to 10 weeks-old male C57BL/6J mice were anesthetized with isoflurane. Then, the brain was rapidly cooled via transcardial perfusion with ice-cold sucrose-artificial cerebrospinal fluid (aCSF). The brain was removed and placed in ice-cold sucrose aCSF. Paracoronal slices were prepared at an angle of 50° relative to the midline on a ramp at an angle of 10°. Then, slices were incubated in aCSF at 35° C. for 30 minutes to recover. Slices were then incubated in aCSF at room temperature (23 to 25° C.) for 1 to 4 hours before being placed in the recording chamber for experiments. The standard aCSF contains saturated with 95% O2/5% CO2. The brain of the mouse was removed and cut into 400 μm at a 50° angle (mouse at a 55° angle) to attach the cut portion to the vibratome disc to be the bottom. Brain slice was incubated in 35° C. in aCSF solution for 30 minutes, or at RT in aCSF solution for 1 hour.
# All electrophysiological experiments were conducted at 27 to 29° C. For electrophysiological experiments, electrodes with […] resistance were used and stimuli were applied to the ventral posteromedial nucleus (VPM) using a concentric bipolar electrode (FHC, Bowdoin, ME). The somatosensory cortex was identified by the presence of barrels under 4× magnification and differential interference contrast (DIC) optics, and by the ability to evoke short and constant latency field excitatory postsynaptic potentials (fEPSPs) by VPM stimulation. Whole-cell voltage-clamp recordings were made from stellate cells (SC) in layer IV of the somatosensory barrel cortex using infrared illumination and differential interference contrast (DIC) optics. The composition of whole cell recording solution is shown as follows:
# Whole cell recordings were made using a multiclamp 700A (Molecular devices, Sunnyvale, CA) digitized at 10 kHz and filtered at 2 kHz. […]
# [1] = oral, 1 mg/kg, 8-week-old C57BL/6J mice
# [2] = applied to the mice barrel cortex using Alzet osmotic pump
molecule,measurement,setting,value
"C[C@H]1CC[C@@H](C(=O)O)CN1C(=O)Cc1ccc(F)cc1Cl [BnH12001 enantiomer (3R,6S, 98%<), (3R,6S)-1-(2-(2-chloro-4-fluorophenyl)acetyl)-6-methylpiperidine-3-carboxylic acid]",Balance of excitation/inhibition (GABA/AMPA ratio),[1],maintaining the balance of excitation/inhibition
same,Efficacy on TC synaptic potency compared among racemate and enantiomers,[1],better efficacy than the racemate
same,TC synaptic potency in the sensory cortex,[1],increase the TC synaptic potency
cyclotraxin B [reference compound],BDNF-induced augmentation of TC EPSC potency,cyclotraxin B 1 μM application,almost completely prevented
same,BnH12001-induced increase of TC EPSC potency,cyclotraxin B 1 μM application,nearly completed hindered
B1,IPSC/EPSC ratio,[2],without alteration
same,TC EPSC potency,[2],significantly increased
